How the values were obtained:
myoblast cell line C2C12 [1] = test: Myocyte differentiation in dexamethasone-induced cell model (total MHC immunofluorescence and DAPI staining); assay type: cell-based, mouse; settings: C2C12 myotubes, 0.5 or 1 μM demethylzeylasteral with 100 μM dexamethasone
Procedure: dexamethasone-induced cell model, the following experiments were performed. Specifically, myoblast cell line C2C12 from mouse were seeded in 6 cm dishes and incubated for 72 hours. Then, the media were replaced to differentiation media to differentiate myoblasts into myotubes for 48 hours. After myotubes were formed, they were teated with 100 μM dexamethasone and 0.5, or 1 μM demethylzeylasteral for 72 hours while replacing the differentiation media every 24 hours. The differentiation media were suctioned off, and the dishes in which the cells were incubated were washed three times with PBS. Then, the cells were fixed with 4% formaldehyde, permeabilized with PBS containing 0.1% Triton-X 100 for 10 minutes, and blocked with PBS containing 3% bovine serum albumin for 1 hour. The cells were treated with total MHC antibodies, a biomarker for myocyte differentiation, followed by Alexa 488-conjugated secondary antibodies, and teated with DAPI for staining nuclei. The ratio of MHC+ nuclei to the total number of nuclei was calculated and plotted as a differentiation index, and the total number of nuclei stained with DAPI was also counted and plotted.

myoblast cell line C2C12 [2] = test: Western blot of total MHC and MuRF-1 in dexamethasone-induced cell model; assay type: cell-based, mouse; settings: C2C12 myotubes, 0.5 or 1 μM demethylzeylasteral with 100 μM dexamethasone, 48 hours, western blot (FIG. 5)
Procedure: Specifically, myoblast cell line C2C12 from mouse were seeded in 6 cm dishes and incubated for 72 hours.

C[C@@]1(C(=O)O)CC[C@]2(C)CC[C@]3(C)C4=CC(=O)c5c(cc(O)c(O)c5C=O)[C@]4(C)CC[C@@]3(C)[C@@H]2C1 [demethylzeylasteral, (2R,4aS,6aR,6aS,14aS,14bR)-9-formyl-10,11-dihydroxy-2,4a,6a,6a,14a-pentamethyl-8-oxo-1,3,4,5,6,13,14,14b-octahydropicene-2-carboxylic acid]
myocyte differentiation index (total number of MHC+ nuclei divided by total number of nuclei) (myoblast cell line C2C12 [1]; 72 hours (FIG. 3)): significantly increased and restored | number of nuclei (DAPI staining) (myoblast cell line C2C12 [1]; 72 hours (FIG. 4)): significantly increased | expression of MuRF-1 (biomarker for muscle degradation) (myoblast cell line C2C12 [2]): significantly reduced expression | expression of total MHC (biomarker for myocyte differentiation in late stage) (myoblast cell line C2C12 [2]): significantly increased expression

Source: patent US20250375401A1, “PHARMACEUTICAL COMPOSITION CONTAINING DEMETHYLZEYLASTERAL FOR PREVENTION OR TREATMENT OF DISEASES CAUSED BY MUSCLE LOSS” (SEOUL NATIONAL UNIVERSITY R&DB FOUNDATION, priority 2022, published 2025)
